# Results taken from US9849097B2, “Dosage forms containing terbutaline sulphate” (Jagotec AG, priority 2012, dated 2017).
# Tests used:
# [1] = oxidative degradation, aqueous solutions; cited from earlier work
# [2] = accelerated stability study on the drug; format: physicochemical; details: 60° C. and 90% relative humidity for up to 4 weeks
# Method: Thus, in the development of a terbutaline sulphate dosage form, the applicant carried out accelerated stability studies on the drug at a temperature of 60° C. and 90% relative humidity for up to 4 weeks.
SMILES,stability of drug substance [1],degradation products [2]
CC(C)(C)NCC(O)c1cc(O)cc(O)c1 (centres unmarked) [terbutaline],highly stable,–
CC(C)(C)NCC(O)c1cc(O)cc(O)c1 (centres unmarked) [terbutaline sulphate],–,No degradation products were observed
